Test results as given in the supplement of paper PMC10307832.

Columns and labels:
Assay in all cases: relative viability (nuclei count vs DMSO), 5 days (fraction); higher = more cells survive
NCI-H1650 = tested on: NCI-H1650
Outline: (§1)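 Values are medians from duplicate plates. Each reflects relative viability, defined as the nuclei count of treated wells over that of vehicle wells. Lung cancer cell lines in 1536-well plates were pin-tool dosed one day after seeding with one drug alone or with a fixed anchor-drug dose plus five library-drug doses (not always all listed) in √10 steps, then fixed, stained and imaged at 4× after 5 days.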

NCI-H441 = tested on: NCI-H441
Outline: as §1

LOU-NH91 = tested on: LOU-NH91
Outline: as §1

NCI-H1993 = tested on: NCI-H1993
Outline: as §1

NCI-H650 = tested on: NCI-H650
Outline: as §1

LCLC-103H = tested on: LCLC-103H
Outline: as §1

HARA = tested on: HARA
Outline: as §1

SW 1573 = tested on: SW 1573
Outline: as §1

ChaGo-K-1 = tested on: ChaGo-K-1
Outline: as §1

NCI-H2009 = tested on: NCI-H2009
Outline: as §1

HCC-78 = tested on: HCC-78
Outline: as §1

201T = tested on: 201T
Outline: as §1

RERF-LC-KJ = tested on: RERF-LC-KJ
Outline: as §1

NCI-H1734 = tested on: NCI-H1734
Outline: as §1

COR-L23 = tested on: COR-L23
Outline: as §1

LCLC-97TM1 = tested on: LCLC-97TM1
Outline: as §1

NCI-H2126 = tested on: NCI-H2126
Outline: as §1

NCI-H460 = tested on: NCI-H460
Outline: as §1

HCC-366 = tested on: HCC-366
Outline: as §1

HCC-44 = tested on: HCC-44
Outline: as §1

NCI-H2023 = tested on: NCI-H2023
Outline: as §1

A-427 = tested on: A-427
Outline: as §1

HCC-15 = tested on: HCC-15
Outline: as §1

Question: How did the relative viability (NCI-H1650; first compound 0.08 µM) turn out when `O=c1[nH]c2ccccc2n1C1CCN(CCCC(c2ccc(F)cc2)c2ccc(F)cc2)CC1` [Pimozide] + O=C(c1cc(Cc2n[nH]c(=O)c3ccccc23)ccc1F)N1CCN(C(=O)C2CC2)CC1 [Olaparib] (partner 8 µM) was run?
Answer: 0.775

Question: What about the relative viability (NCI-H1650; first compound 0.253 µM) of the same molecule?
Answer: 0.664

Question: And the relative viability (NCI-H1650; first compound 0.8 µM)?
Answer: 0.762

Question: What about the relative viability (NCI-H1650; first compound 2.53 µM) of the same molecule?
Answer: 0.962

Question: What about the relative viability (NCI-H1650; first compound 8 µM) of the same molecule?
Answer: 0.805

Question: What about the relative viability (NCI-H441; first compound 0.08 µM) of the same molecule?
Answer: 0.641

Question: What about the relative viability (NCI-H441; first compound 0.253 µM) of the same molecule?
Answer: 0.593

Question: What about the relative viability (NCI-H441; first compound 0.8 µM) of the same molecule?
Answer: 0.506

Question: And the relative viability (NCI-H441; first compound 2.53 µM)?
Answer: 0.416

Question: And the relative viability (NCI-H441; first compound 8 µM)?
Answer: 0.57

Question: And the relative viability (LOU-NH91; first compound 0.08 µM)?
Answer: 0.655

Question: What about the relative viability (LOU-NH91; first compound 0.253 µM) of the same molecule?
Answer: 0.911

Question: And the relative viability (LOU-NH91; first compound 0.8 µM)?
Answer: 0.866

Question: What about the relative viability (LOU-NH91; first compound 2.53 µM) of the same molecule?
Answer: 0.962

Question: What about the relative viability (LOU-NH91; first compound 8 µM) of the same molecule?
Answer: 0.971

Question: And the relative viability (NCI-H1993; first compound 0.08 µM)?
Answer: 0.95

Question: And the relative viability (NCI-H1993; first compound 0.253 µM)?
Answer: 1.12

Question: And the relative viability (NCI-H1993; first compound 0.8 µM)?
Answer: 0.918

Question: And the relative viability (NCI-H1993; first compound 2.53 µM)?
Answer: 1.05

Question: What about the relative viability (NCI-H1993; first compound 8 µM) of the same molecule?
Answer: 1.13

Question: What about the relative viability (NCI-H650; first compound 0.08 µM) of the same molecule?
Answer: 0.409

Question: And the relative viability (NCI-H650; first compound 0.253 µM)?
Answer: 0.333

Question: What about the relative viability (NCI-H650; first compound 0.8 µM) of the same molecule?
Answer: 0.475

Question: And the relative viability (NCI-H650; first compound 2.53 µM)?
Answer: 0.404

Question: And the relative viability (NCI-H650; first compound 8 µM)?
Answer: 0.408

Question: What about the relative viability (LCLC-103H; first compound 0.08 µM) of the same molecule?
Answer: 0.782

Question: And the relative viability (LCLC-103H; first compound 0.253 µM)?
Answer: 0.721

Question: And the relative viability (LCLC-103H; first compound 0.8 µM)?
Answer: 0.722

Question: And the relative viability (LCLC-103H; first compound 2.53 µM)?
Answer: 0.695

Question: What about the relative viability (LCLC-103H; first compound 8 µM) of the same molecule?
Answer: 0.72

Question: What about the relative viability (HARA; first compound 0.08 µM) of the same molecule?
Answer: 0.785

Question: And the relative viability (HARA; first compound 0.253 µM)?
Answer: 0.764

Question: And the relative viability (HARA; first compound 0.8 µM)?
Answer: 0.746

Question: And the relative viability (HARA; first compound 2.53 µM)?
Answer: 0.74

Question: And the relative viability (HARA; first compound 8 µM)?
Answer: 0.749

Question: And the relative viability (SW 1573; first compound 0.08 µM)?
Answer: 0.457

Question: And the relative viability (SW 1573; first compound 0.253 µM)?
Answer: 0.442

Question: And the relative viability (SW 1573; first compound 0.8 µM)?
Answer: 0.448

Question: What about the relative viability (SW 1573; first compound 2.53 µM) of the same molecule?
Answer: 0.38

Question: What about the relative viability (SW 1573; first compound 8 µM) of the same molecule?
Answer: 0.391

Question: And the relative viability (ChaGo-K-1; first compound 0.08 µM)?
Answer: 0.402

Question: And the relative viability (ChaGo-K-1; first compound 0.253 µM)?
Answer: 0.365

Question: And the relative viability (ChaGo-K-1; first compound 0.8 µM)?
Answer: 0.433

Question: And the relative viability (ChaGo-K-1; first compound 2.53 µM)?
Answer: 0.467

Question: What about the relative viability (ChaGo-K-1; first compound 8 µM) of the same molecule?
Answer: 0.413

Question: What about the relative viability (NCI-H2009; first compound 0.08 µM) of the same molecule?
Answer: 0.761

Question: What about the relative viability (NCI-H2009; first compound 0.253 µM) of the same molecule?
Answer: 0.649

Question: What about the relative viability (NCI-H2009; first compound 0.8 µM) of the same molecule?
Answer: 0.769

Question: What about the relative viability (NCI-H2009; first compound 2.53 µM) of the same molecule?
Answer: 0.683

Question: And the relative viability (NCI-H2009; first compound 8 µM)?
Answer: 0.629

Question: And the relative viability (HCC-78; first compound 0.08 µM)?
Answer: 0.832

Question: And the relative viability (HCC-78; first compound 0.8 µM)?
Answer: 0.787

Question: And the relative viability (HCC-78; first compound 2.53 µM)?
Answer: 0.709

Question: And the relative viability (HCC-78; first compound 8 µM)?
Answer: 0.749

Question: What about the relative viability (201T; first compound 0.08 µM) of the same molecule?
Answer: 0.876

Question: And the relative viability (201T; first compound 0.253 µM)?
Answer: 0.836

Question: And the relative viability (201T; first compound 0.8 µM)?
Answer: 0.807

Question: What about the relative viability (201T; first compound 2.53 µM) of the same molecule?
Answer: 0.821

Question: What about the relative viability (201T; first compound 8 µM) of the same molecule?
Answer: 0.719

Question: What about the relative viability (RERF-LC-KJ; first compound 0.08 µM) of the same molecule?
Answer: 0.873

Question: What about the relative viability (RERF-LC-KJ; first compound 0.253 µM) of the same molecule?
Answer: 0.823

Question: What about the relative viability (RERF-LC-KJ; first compound 0.8 µM) of the same molecule?
Answer: 0.838

Question: What about the relative viability (RERF-LC-KJ; first compound 2.53 µM) of the same molecule?
Answer: 0.659

Question: And the relative viability (RERF-LC-KJ; first compound 8 µM)?
Answer: 0.648

Question: What about the relative viability (NCI-H1734; first compound 0.08 µM) of the same molecule?
Answer: 0.645

Question: What about the relative viability (NCI-H1734; first compound 0.253 µM) of the same molecule?
Answer: 0.563

Question: What about the relative viability (NCI-H1734; first compound 0.8 µM) of the same molecule?
Answer: 0.613

Question: What about the relative viability (NCI-H1734; first compound 2.53 µM) of the same molecule?
Answer: 0.636

Question: And the relative viability (NCI-H1734; first compound 8 µM)?
Answer: 0.637

Question: What about the relative viability (COR-L23; first compound 0.08 µM) of the same molecule?
Answer: 0.325

Question: And the relative viability (COR-L23; first compound 0.253 µM)?
Answer: 0.308

Question: And the relative viability (COR-L23; first compound 0.8 µM)?
Answer: 0.386

Question: What about the relative viability (COR-L23; first compound 2.53 µM) of the same molecule?
Answer: 0.383

Question: And the relative viability (COR-L23; first compound 8 µM)?
Answer: 0.336

Question: And the relative viability (LCLC-97TM1; first compound 0.08 µM)?
Answer: 0.387

Question: What about the relative viability (LCLC-97TM1; first compound 0.253 µM) of the same molecule?
Answer: 0.314

Question: What about the relative viability (LCLC-97TM1; first compound 0.8 µM) of the same molecule?
Answer: 0.404

Question: What about the relative viability (LCLC-97TM1; first compound 2.53 µM) of the same molecule?
Answer: 0.222

Question: And the relative viability (LCLC-97TM1; first compound 8 µM)?
Answer: 0.269

Question: What about the relative viability (NCI-H2126; first compound 0.08 µM) of the same molecule?
Answer: 0.922

Question: What about the relative viability (NCI-H2126; first compound 0.253 µM) of the same molecule?
Answer: 0.89

Question: What about the relative viability (NCI-H2126; first compound 0.8 µM) of the same molecule?
Answer: 0.944

Question: And the relative viability (NCI-H2126; first compound 2.53 µM)?
Answer: 0.92

Question: And the relative viability (NCI-H2126; first compound 8 µM)?
Answer: 0.858

Question: And the relative viability (NCI-H460; first compound 0.08 µM)?
Answer: 0.499

Question: What about the relative viability (NCI-H460; first compound 0.253 µM) of the same molecule?
Answer: 0.48

Question: What about the relative viability (NCI-H460; first compound 0.8 µM) of the same molecule?
Answer: 0.394

Question: And the relative viability (NCI-H460; first compound 2.53 µM)?
Answer: 0.361

Question: And the relative viability (NCI-H460; first compound 8 µM)?
Answer: 0.398

Question: And the relative viability (HCC-366; first compound 0.08 µM)?
Answer: 0.355

Question: And the relative viability (HCC-366; first compound 0.253 µM)?
Answer: 0.332

Question: And the relative viability (HCC-366; first compound 0.8 µM)?
Answer: 0.373

Question: And the relative viability (HCC-366; first compound 2.53 µM)?
Answer: 0.323

Question: What about the relative viability (HCC-366; first compound 8 µM) of the same molecule?
Answer: 0.334

Question: And the relative viability (HCC-44; first compound 0.08 µM)?
Answer: 1

Question: What about the relative viability (HCC-44; first compound 0.253 µM) of the same molecule?
Answer: 1.02

Question: What about the relative viability (HCC-44; first compound 0.8 µM) of the same molecule?
Answer: 0.938

Question: And the relative viability (HCC-44; first compound 2.53 µM)?
Answer: 0.973

Question: What about the relative viability (HCC-44; first compound 8 µM) of the same molecule?
Answer: 0.931

Question: And the relative viability (NCI-H2023; first compound 0.08 µM)?
Answer: 0.481

Question: What about the relative viability (NCI-H2023; first compound 0.253 µM) of the same molecule?
Answer: 0.47

Question: What about the relative viability (NCI-H2023; first compound 0.8 µM) of the same molecule?
Answer: 0.444

Question: What about the relative viability (NCI-H2023; first compound 2.53 µM) of the same molecule?
Answer: 0.351

Question: What about the relative viability (NCI-H2023; first compound 8 µM) of the same molecule?
Answer: 0.348

Question: What about the relative viability (A-427; first compound 0.08 µM) of the same molecule?
Answer: 0.708

Question: And the relative viability (A-427; first compound 0.253 µM)?
Answer: 0.681

Question: What about the relative viability (A-427; first compound 0.8 µM) of the same molecule?
Answer: 0.661

Question: What about the relative viability (A-427; first compound 2.53 µM) of the same molecule?
Answer: 0.691

Question: What about the relative viability (A-427; first compound 8 µM) of the same molecule?
Answer: 0.685

Question: What about the relative viability (HCC-15; first compound 0.08 µM) of the same molecule?
Answer: 0.72

Question: And the relative viability (HCC-15; first compound 0.253 µM)?
Answer: 0.672

Question: And the relative viability (HCC-15; first compound 0.8 µM)?
Answer: 0.717

Question: And the relative viability (HCC-15; first compound 2.53 µM)?
Answer: 0.712

Question: What about the relative viability (HCC-15; first compound 8 µM) of the same molecule?
Answer: 0.738
